Literature values as cited in PMC10664590 (Chemical Science, 2023).

For O=c1ccc2ccc(O)cc2o1 [7-hydroxy-cumarine], the long-wavelength absorption maximum is given as “around 330 nm” and the fluorescence maximum (in ethanol) is given as “around 380 nm”.
